Values after ≈ are worked out from the molar mass of the structure shown. Where two headings read alike, the source gives them in different places.

Data set [1] has as its system L1210 leukemia cells. Nature of the data set: Cytotoxicity for L1210 leukemia cells (stem cell assay, SCA). The class given is cell-based. To be noted: Mus musculus. Here is the method: The test was carried out in accordance with the methods described by Hamburger and Salmon, with the modifications described below.
Conditioned medium was replaced by McCoy 5A medium. As a consequence of the high cloning rate of the L1210 leukemia cells in soft agar, the number of tumor cells per plate was reduced to 5×10^2.
The cells were incubated with various concentrations of the test substance at 37° C. for 1 h. The cells were subsequently washed twice with McCoy 5A medium and subsequently plated out in a two-layer agar system as upper layer in accordance with the Hamburger and Salmon method.
Additional parallel experiments were carried out using a continuous incubation time, in which case various concentrations of the test substance were mixed with the upper agar layer before plating out of the cells.
The plates were incubated in an incubator with 5% CO2, 20% O2 and 95% relative humidity for 5-7 days. After this time, colonies with a diameter of 60 μm were counted using an invertoscope.
The results have been reported as the percentage of colonies in treated versus untreated groups. The coefficient of variation for repeat experiments was less than 15%.
The IC50 for continuous and one-hour incubation was determined from the dose-effect plot (Tab. 1).

For data set [2], the system named is patients. To be noted: cited from earlier work.
Data set [3] deals with L1210 cells. Description: Proliferation test (MTT reduction), L1210. The class given is cell-based. Here is the method:
(§1) L1210, A 549 or HT 29 in the exponential growth phase are incubated in a cell density of 5×10^3 cells/ml in RPMI 1640 medium in a 96-well microtest plate with various concentrations of the test substance at 37° C., 5% CO2 and 95% relative humidity for 72 h. Control experiments contain merely growth medium in place of test substance. Determinations in quadruplicate are made up for each test substance and for the control. After incubation for 65 h, 50 µl of an MTT solution (2.5 mg/ml in phosphate-buffered saline) are added. In the presence of live cells MTT is reduced to a dark-red insoluble formazan dyestuff. This reaction is complete after 7 h (L1210 cells) or after 24 h (A 549, HT 29 cells), and the supernatant medium is carefully aspirated off. The insoluble dyestuff is dissolved by addition of 100 µl of DMSO, and the extinction of the solution produced in this way is subsequently measured at a wavelength of 492 nm for each well in a 340 CC Multiscan Photometer from Flow.
(§2) The ratio of the extinctions with treated and untreated cells yields a dose-effect plot from which the concentration which just kills 50% of the cells (IC50) can be read off. The coefficient of variation for repeat tests is less than 15%.
On the technique in general: Tetrazolium assays rely on reduction of a dye to a coloured formazan, in cell work by metabolically active cells.

For data set [4], the system named is A 549 cells. Nature of the data set: Proliferation test (MTT reduction), A549. The class given is cell-based. Here is the method: as §1, §2
The subject of data set [5] is HT 29 cells. Nature of the data set: Proliferation test (MTT reduction), HT29. The format is cell-based. To be noted: Homo sapiens, read-out: IC50 MTT assay HT29. Here is the method: as §1, §2
Where [6] appears, read: L1210, 1 h, read-out: IC50 SCA 1 h.
[7] abbreviates: Mus musculus, L1210, 72 h; read-out: IC50 MTT assay L1210.
[8] abbreviates: Homo sapiens, A549, 72 h; read-out: IC50 MTT assay A549.
Setting [9] is: L1210, 1 h incubation, read-out: IC50 SCA 1 h.

Regarding `COc1cccc2c1C(=O)c1c(O)c3c(c(O)c1C2=O)C[C@@](O)(C(=O)CO)C[C@@H]3O[C@H]1C[C@H](N)[C@H](O)[C@H](C)O1` [Adriamycin, reference compound], the IC50 in data set [1] (setting [6]) worked out at 0.04 µg/mL (≈ 0.0736 µM); in data set [1] (L1210, read-out: IC50 SCA cont.), 0.02 µg/mL (≈ 0.0368 µM). The “side effects of the treatment” value in data set [2] (clinical use, specialist literature) was “damage to the circulatory system and symptoms characteristic thereof”.
As to `CC[C@@]1(O)C[C@H](O[C@H]2C[C@H](O)[C@H](N)[C@H](C)O2)c2c(O)c3c(c(O)c2[C@H]1O)C(=O)c1cccc(OC)c1C3=O` [compound 8], the IC50 in data set [3] (setting [7]) turned out to be 0.043 µg/mL (≈ 0.0812 µM); in data set [4] (setting [8]), 0.14 µg/mL (≈ 0.264 µM); in data set [5] (HT-29, HT29, 72 h), 0.043 µg/mL (≈ 0.0812 µM).
With `CC[C@@]1(O)C[C@H](O[C@H]2C[C@H](N)[C@H](N)[C@H](C)O2)c2c(O)c3c(c(O)c2[C@H]1O)C(=O)c1cccc(OC)c1C3=O` [compound 10, 4-O-Methyl-7-O-(3',4'-diamino-2',3',4',6'-tetradeoxy-alpha-L-lyxohexopyranosyl)-β-rhodomycinone], the IC50 in data set [3] (setting [7]) stood at 0.039 µg/mL (≈ 0.0738 µM); in data set [4] (setting [8]) it was 0.095 µg/mL (≈ 0.18 µM); in data set [5] (HT-29, HT29, 72 h), 0.033 µg/mL (≈ 0.0624 µM).
`CC[C@@]1(O)C[C@H](O[C@H]2C[C@H](N)[C@@H](NC(=O)C(F)(F)F)[C@H](C)O2)c2c(O)c3c(c(O)c2[C@H]1O)C(=O)c1cccc(O)c1C3=O` [compound 12, 7-O-(3'-Amino-2',3',4',6'-tetradeoxy-4'-trifluoroacetamido-alpha-L-arabinohexopyranosyl)-β-rhodomycinone]: the concentration for half-maximal inhibition (IC50) in data set [1] (setting [9]) is 0.44 µg/mL (≈ 0.721 µM); in data set [3] (setting [7]), 0.03 µg/mL (≈ 0.0491 µM); in data set [4] (setting [8]) it was 0.027 µg/mL (≈ 0.0442 µM); in data set [5] (HT-29, HT29, 72 h) it was 0.022 µg/mL (≈ 0.036 µM).
For the compound `CC[C@@]1(O)C[C@H](O[C@H]2C[C@H](N=[N+]=[N-])[C@H](NC(=O)C(F)(F)F)[C@H](C)O2)c2c(O)c3c(c(O)c2[C@H]1O)C(=O)c1cccc(O)c1C3=O` [compound 13, 7-O-(3'-Azido-2',3',4',6'-tetradeoxy-4'-trifluoroacetamido-alpha-L-lyxohexopyranosyl)-β-rhodomycinone], the IC50 is 0.29 µg/mL (≈ 0.456 µM) in data set [1] (setting [9]); 0.1 µg/mL (≈ 0.157 µM) in data set [3] (setting [7]); 0.1 µg/mL (≈ 0.157 µM) in data set [4] (setting [8]); 0.2 µg/mL (≈ 0.314 µM) in data set [5] (HT-29, HT29, 72 h).
Regarding `CC[C@@]1(O)C[C@H](O[C@H]2C[C@H](NC(=O)C(F)(F)F)[C@H](NC(=O)C(F)(F)F)[C@H](C)O2)c2c(O)c3c(c(O)c2[C@H]1O)C(=O)c1cccc(O)c1C3=O` [compound 15, 7-O-(3',4'-bis-(trifluoroacetamido)-2',3',4',6'-tetradeoxy-alpha-L-lyxohexopyranosyl)-β-rhodomycinone], the IC50 was determined as 0.43 µg/mL (≈ 0.609 µM) in data set [1] (setting [9]); 0.037 µg/mL (≈ 0.0524 µM) in data set [3] (setting [7]); 0.059 µg/mL (≈ 0.0835 µM) in data set [4] (setting [8]); 0.1 µg/mL (≈ 0.142 µM) in data set [5] (HT-29, HT29, 72 h).
As for `CC[C@@]1(O)C[C@H](O[C@H]2C[C@H](N)[C@H](N)[C@H](C)O2)c2c(O)c3c(c(O)c2[C@H]1O)C(=O)c1cccc(O)c1C3=O` [compound 16, 7-O-(3',4'-Diamino-2',3',4',6'-tetradeoxy-alpha-L-lyxohexo-pyranosyl)-β-rhodomycinone], the IC50 in data set [1] (setting [9]) came to 0.069 µg/mL (≈ 0.134 µM); in data set [3] (setting [7]), 0.01 µg/mL (≈ 0.0194 µM); in data set [4] (setting [8]), 0.04 µg/mL (≈ 0.0777 µM); in data set [5] (HT-29, HT29, 72 h), 0.069 µg/mL (≈ 0.134 µM).
With `CC[C@@]1(O)C[C@H](O[C@H]2C[C@H](NC(=O)C(F)(F)F)[C@@H](N=[N+]=[N-])[C@H](C)O2)c2c(O)c3c(c(O)c2[C@H]1O)C(=O)c1cccc(O)c1C3=O` [compound 17, 7-O-(4'-Azido-2',3',4',6'-tetradeoxy-3'-trifluoroacetamido-alpha-L-arabinohexopyranosyl)-β-rhodomycinone], the IC50 is 1.4 µg/mL (≈ 2.2 µM) in data set [1] (setting [6]); 0.33 µg/mL (≈ 0.518 µM) in data set [3] (Mus musculus, L1210, 72 h, read-out: IC50 MTT assay L1210); 0.52 µg/mL (≈ 0.817 µM) in data set [4] (Homo sapiens, A549, 72 h, read-out: IC50 MTT assay A549); 0.34 µg/mL (≈ 0.534 µM) in data set [5] (HT-29, 72 h).
Take `COc1cccc2c1C(=O)c1c(O)c3c(c(O)c1C2=O)C[C@@](O)(C(C)=O)C[C@@H]3O[C@H]1C[C@H](N)[C@H](O)[C@H](C)O1` [daunorubicin]: in data set [2] (in vivo), the “side effects of the treatment” value is “damage to the circulatory system and symptoms characteristic thereof”.

One may read the IC50 as the concentration needed to halve the response being measured.

Source of the values: patent US5049549A, “Rhodomycins with a modified carbohydrate unit” (Behringwerke Aktiengesellschaft, priority 1988, dated 1991).
